In one test the test system is Hes5-GFP-positive cells. Kind of test: Neurosphere generation from FACS-sorted Hes5-GFP-positive cells. Type of test: cell-based, mouse. Here is the method: Brains from 8-12 weeks old male Hes5-GFP mice were removed and hippocampi were isolated as described earlier. A live cell suspension was prepared from the hippocampus using 0.1% papain, and the dead cells were labelled with propidium iodide (1 μg/ml). GFP-positive and -negative cells were then purified by fluorescence-activated cell sorting (FACS). Cells were sorted on a FACS Vantage (Becton Dickinson, Melbourne, Australia) with DIVA software. The […] was set relative to the basal fluorescence levels obtained from GFP-negative wild-type littermate controls and a conservative approach was used in selecting only high GFP-expressing cells. The cells were collected in basal medium and plated into 96-well tissue culture plates in medium containing EGF+bFGF with or without norepinephrine (10 μM).

Another test concerns hippocampal precursors. In words: Slice-sphere assay (hippocampal organotypic slices, then neurosphere culture). The test is classed as cell-based, rat. The conditions noted are these: slices treated at 100 μM. Here is the method: D-glucose (Sigma-Aldrich) was added to the medium to a final concentration of 5 mM. Four filters, each containing 6-7 hippocampal slices, were generated from a single animal. Plates were incubated at 37° C. in a humidified 5% CO2 incubator and the slices were cultured for 6 days. To assess the influence of specific compounds on hippocampal precursor proliferation in the slice culture, compounds were added to the complete medium at the doses described below. Two filters were treated with the compounds for each dose per experiment. On every alternate day half the medium was removed and replaced with fresh medium containing the compounds. Slices were treated with serotonin at 10 μM and 100 μM and norepinephrine at 1 μM, 10 μM and 100 μM. […] Propranolol (10 μM) was used to block β adrenergic receptors in the slices. On the 6th day of culture, the hippocampal slices from each treatment group were pooled and the tissue was minced using a scalpel blade. Minced tissue was then treated with 0.1% trypsin-EDTA (Invitrogen) for 5 minutes at 37° C. […] A single cell suspension was achieved by gentle trituration. The total number of viable cells in an aliquot was counted on a haemocytometer based on the exclusion of 0.08% trypan blue (Sigma-Aldrich). The cells were then cultured in complete neurosphere medium containing EGF and bFGF. […] For each experiment there were 20 wells plated for each of the doses per treatment group. The plates were incubated at 37° C. in a humidified 5% CO2 incubator.

Test [1] concerns norepinephrine-stimulated large neurospheres. In words: Hippocampal neurosphere passaging (self-renewal). The test is classed as cell-based, mouse. The conditions noted are these: 10 μM; 15 out of 21. The text has this:
To ascertain whether the norepinephrine-stimulated large neurospheres indeed reflected the activation of stem cells, individual neurospheres were selected and subjected to long-term passaging to assess their self-renewal capacity.
As a first step primary, neurospheres were individually dissociated and replated into fresh media not containing norepinephrine. Primary neurospheres from the unstimulated hippocampus were also passaged as single spheres. Hippocampal neurosphere cultures were initiated by removing 150 μl of the medium from wells containing single neurospheres, treating with 100 μl 0.1% trypsin-EDTA for 2 minutes at room temperature, followed by washing with 100 μl trypsin inhibitor in HEM. The neurospheres were mechanically triturated until dissociated and replated in 24 well plates in 2 ml of complete medium. Neurospheres were passaged every 10 days by centrifuging the neurospheres, removing the medium and incubating in 1 ml of 0.1% trypsin-EDTA for 2 minutes at room temperature. After the addition of an equal volume of trypsin inhibitor, the neurospheres were centrifuged at 100 rcf for 5 minutes and the supernatant removed. Cells were mechanically triturated in 500 μl of complete medium and trypan blue staining was used to evaluate the number of cells, both viable and total number, on a haemocytometer. […]

A further test has as its system hippocampal neurospheres. In words: Immunocytochemistry of neurospheres (multipotentiality). Type of test: cell-based, mouse. Here is the method:
We next determined the multipotentiality of the cells present within the neurospheres generated in the presence and absence of norepinephrine (FIG. 2b, c, d).
Control or norepinephrine-stimulated neurospheres were plated onto poly-ornithine-coated cover slips or poly-D-lysine-coated BioCoat eight-well culture slides (BD Biosciences) in serum-free basal medium without any mitogens. The neurospheres were allowed to flatten and adhere for 4-6 days in a humidified, 5% CO2 incubator. They were then fixed with 4% paraformaldehyde in 0.1M phosphate buffered saline (PBS) at 4° C. for 40 min, and immunocytochemistry was performed as described previously 38 using antibodies to the neuronal marker βIII tubulin (1:2000; Promega, Madison, Wis.), the astrocytic marker GFAP (1:500; DakoCytomation, Carpinteria, Calif.) and the oligodendrocyte marker MBP (1:500; Millipore, Sydney, Australia). 4′,6′-diamidino-2-phenylindole (DAPI; 1:5000; Sigma-Aldrich) was used as a nuclear stain. Slides were mounted using fluoromount (DakoCytomation) and viewed on a Zeiss-Axio Imager microscope. Images were captured using a digital camera linked to a computer using Zeiss software.

For test [2], the system named is adult hippocampal precursors. In words: Adult hippocampal neurosphere culture. The test is classed as cell-based, mouse. Here is the method: Animals were treated in accordance with the Australian Code of Practice for the Care and Use of Animals for Scientific Purposes and ethics approval was obtained for all experiments from the Animal Ethics Committee of the University of Queensland. 8-10 week old male C57/B16 mice were killed by cervical dislocation and their brains removed. Brains were bisected along the midline in the sagittal plane. The hippocampi were isolated from the overlying cortex and minced using a scalpel blade. Minced tissue was digested in 0.1% papain (Invitrogen, Melbourne, Australia) for 20 minutes at 37° C., after which an excess of NeuroCult NSC basal medium (Stem Cell Technologies, Vancouver, Canada) was added to halt the digestion. Tissue was then centrifuged at 100 rcf for 5 minutes, the resulting pellet was resuspended in 1 ml of complete neurosphere medium, and a single cell suspension was achieved by gentle trituration. The cells were filtered through a 40 μm cell sieve (BD Biosciences, Sydney, Australia) and resuspended in NeuroCult NSC basal medium containing NeuroCult proliferation supplements (Stem Cell Technologies), 2% bovine serum albumin (Invitrogen) and 2 μg/ml heparin (Sigma-Aldrich, Sydney, Australia). The growth factors added were 20 ng/ml EGF (receptor grade, BD Biosciences) and 10 ng/ml bFGF (recombinant bovine, Roche, Basel, Switzerland). The cells were then plated in a 96-well plate and cultured in complete neurosphere medium containing EGF and bFGF, in the presence or absence of 5-hydroxytryptamine hydrochloride (serotonin; 100 nM, 1 μM, 10 μM), L-(−)-noradrenaline (+)-bitartrate salt monohydrate (norepinephrine; 100 nM, 1 μM, 10 μM) or KCl (15 mM). The adrenergic receptor antagonists used were prazosin (100 nM), yohimbine (1 μM), propranolol (1 μM), CGP20712 (10 nM), ICI118,551 (10 nM) and SR59230A (10 nM). BRL37344 was used as a selective β3 adrenergic receptor agonist. All the compounds were purchased from Sigma-Aldrich. The number of primary neurospheres was counted on day 10-13 and expressed as a percentage relative to the control.

The source of these data is patent publication US8790889B2, “Neuronal stimulation” (The University of Queensland, priority 2009, dated 2014).

Molecules are shown by their SMILES. Structures can show the parent of a compound that is named as a salt.

As for `NC[C@H](O)c1ccc(O)c(O)c1` [norepinephrine, L-(−)-noradrenaline (+)-bitartrate salt monohydrate], the “very large neurospheres (>200 μm in diameter)” value with Hes5-GFP-positive cells (10 μM, GFP-positive population) is given as 7.3±0.8 neurospheres per hippocampus. Further, the “increase in neurosphere numbers” value in the test on Hes5-GFP-positive cells (Hes5-GFP-positive cells plated at clonal density) is given as 215.4±23.5%. In addition, the “number of neurospheres from purified Hes5-GFP-positive precursor population” value in the test with Hes5-GFP-positive cells (n=2 experiments, SR59230A 10 nM) is listed as 45.5±2.5 neurospheres. The “increase in neurosphere frequency / precursor activity” value in the test on hippocampal precursors is listed as 3.5 fold. Also, in test [1], the “proportion of stimulated large neurospheres (>200 μm) that could be passaged over 10 times” value turned out to be 71.4%. Besides, the “neurons per stimulated large neurosphere” value in the test on hippocampal neurospheres (all large neurospheres examined, n=9) is above 50 neurons. The “neurospheres containing MBP-positive oligodendrocytes” value with hippocampal neurospheres (stimulated neurospheres) is on record as “One third”. Moreover, the “neurospheres containing βIII tubulin-positive neurons” value in the test with hippocampal neurospheres (stimulated neurospheres examined) is 62 out of 82. Besides, in test [2] (100 nM and 1 μM), the “neurosphere numbers compared to the control” value is on record as “significant increase”. Moreover, in test [2] (10 μM), the size of neurospheres entry is recorded as “larger than the control neurospheres”. For the same compound, the “very large neurospheres generated” value in test [2] (norepinephrine with or without SR59230A 10 nM) amounted to 12±2.08 neurospheres.
